# PubChem BioAssay (NCI)
# Several values for one entry are separate records, joined by “and”; a condition that tells them apart may be missing. Equal values may be shown once.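 Compound exposure: 48 hours, 5 concentrations, 96-well plates. GI50 marks 50% less growth. At the TGI there is no net growth.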
# Columns and labels:
# Test in all cases: NCI-60 cell line screen, 48 h
# CCRF-CEM leukemia = tested on: CCRF-CEM leukemia
# COLO 205 colon = tested on: COLO 205 colon
# DLD-1 colon = tested on: DLD-1 colon
# HOP-62 NSCLC = tested on: HOP-62 NSCLC
# LXFL 529 NSCLC = tested on: LXFL 529 NSCLC
# SNB-19 CNS = tested on: SNB-19 CNS
# BT-549 breast = tested on: BT-549 breast
# DU-145 prostate = tested on: DU-145 prostate
# MDA-MB-435 = tested on: MDA-MB-435
# T-47D breast = tested on: T-47D breast
SMILES,TGI (CCRF-CEM leukemia) [µM],TGI (COLO 205 colon) [µM],TGI (DLD-1 colon),TGI (HOP-62 NSCLC) [µM],TGI (LXFL 529 NSCLC),TGI (SNB-19 CNS) [µM],GI50 (CCRF-CEM leukemia) [µM],GI50 (COLO 205 colon) [µM],GI50 (DLD-1 colon) [µM],GI50 (HOP-62 NSCLC) [µM],GI50 (LXFL 529 NSCLC) [µM],GI50 (SNB-19 CNS) [µM],GI50 (BT-549 breast) [µM],TGI (BT-549 breast) [µM],GI50 (DU-145 prostate) [µM],TGI (DU-145 prostate) [µM],GI50 (MDA-MB-435) [µM],TGI (MDA-MB-435) [µM],GI50 (T-47D breast) [µM],TGI (T-47D breast) [µM]
CC(=O)c1sc(-c2nc(C)c(C(=O)/C=C\c3ccc(/C=C\C(=O)c4sc(-c5nc(C)c(C(C)=O)s5)nc4C)cc3)s2)nc1C,> 100,> 100,> 100 µM,> 100,> 100 µM,> 100,,,,,,,,,,,,,,
COC(=O)/C(C#N)=C1\CCC(O)N1 (stereo not given),> 100,> 100,> 100 µM,> 100,> 100 µM,> 100,,,,,,,,,,,,,,
COc1cc2ccc3c4cc(OC)c(OC(C)C)cc4cnc3c2cc1OC,> 100,> 100,> 100 µM,> 100,> 100 µM,> 100,,,,,,,,,,,,,,
C=C1C[C@]23CCC4C(C)(C)C(=O)CC[C@]4(C)C2C[C@H]1C(O)C3=O (stereo not given in full),> 75,> 75,> 75 µM,> 75,> 75 µM,> 75,,,,,,,,,,,,,,
CCCCOC(=O)NC(=O)c1cn(CCCOC(=O)NCCCCCCNC(=O)OCCCn2cc(C(=O)NC(=O)OCCCC)c(=O)[nH]c2=O)c(=O)[nH]c1=O,,> 100,> 100 µM,> 100,> 100 µM,> 100,,,,,,,,,,,,,,
O=C1CC2C(=O)N(Cc3ccccc3)C1C=C2S(=O)(=O)c1ccccc1 (stereo not given),> 100,> 100,> 100 µM,> 100,> 100 µM,> 100,,,,,,,,,,,,,,
COC(=O)/C(C=O)=C/Sc1ccccc1,> 100,42.9,66 µM,> 100,78.9 µM,> 100,,,,,,,,,,,,,,
Nc1ccn(C2(CO)C=C(CO)C(O)C2O)c(=O)n1 (stereo not given),,> 25.8,> 25.8 µM,> 25.8,> 25.8 µM,> 25.8,,,,,,,,,,,,,,
CC1=NN(C(=O)CC(=O)N(C(=O)c2ccccc2Cl)c2ccc(C)cc2)C(=O)C1N=Nc1ccc([N+](=O)[O-])cc1 (stereo not given),> 70.7,> 58,> 66.1 µM,> 100,> 100 µM,> 100,,,,,,,,,,,,,,
O=C(Nc1cc(Cl)ccc1Cl)C(=O)C(c1cnc2ccccc2n1)[N+](=O)[O-] (stereo not given),> 100,> 100,> 100 µM,> 100,> 100 µM,> 100,,,,,,,,,,,,,,
CC(C)CCCC(C)[C@H]1CCC2[C@H]3C(CC[C@@]21C)[C@@]1(C)CCC=C[C@]12C[C@@H]2[C@@H]3O (stereo not given in full),> 100,> 100,> 100 µM,> 100,> 100 µM,> 100,,,,,,,,,,,,,,
Cc1cc(NS(=O)(=O)c2ccc(Nc3c4ccccc4nc4c(C(=O)NCCN(C)C)cccc34)cc2)no1,11.1,> 100,> 100 µM,6.57,> 100 µM,13,,,,,,,,,,,,,,
COc1cccc(-n2c3nc(=O)n(C)c(=O)c-3nc3ccccc32)c1,79.1,13.1,96.1 µM,> 100,81.8 µM,74.3,,,,,,,,,,,,,,
O=c1[nH]c2cc(Cl)ccc2nc1/C(=N\O)C(O)c1ccc(Cl)cc1Cl (stereo not given),> 100,> 100,> 100 µM,> 100,> 100 µM,> 100,,,,,,,,,,,,,,
N.N.N.N.[Cl-].[Co+3].[N-]=[N+]=[N-].[N-]=[N+]=[N-],> 100,> 100,> 100 µM,> 100,> 100 µM,> 100,91.6,> 100,> 100,> 100,> 100,> 100,,,,,,,,
C[C@@]12CCCc3coc(c31)C(=O)c1cc3c(cc12)C(=O)C=CC3=O,7.74,> 1,> 1 µM and 6.07 µM,> 100,> 1 µM and 28.2 µM,> 100,,,> 1,> 100,> 1,> 1,,,,,,,,
C=CCNC(=O)N(CCC)CCCCC(NC(C)=O)C(=O)NCc1ccccc1 (stereo not given),> 100,> 100,,> 100,> 100 µM,> 100,,,,,,,,,,,,,,
C1C[OH+]CCNCC[OH+]CC[OH+]CCN1.[Cl-].[Pt+4],> 100,> 100,> 100 µM,> 100,> 100 µM,> 100,51.4,> 100,> 100,> 100,> 100,> 100,,,,,,,,
COC(=O)OCC1OC(N2C(=O)NC(=O)C(Br)C2N=[N+]=[N-])CC1OC(=O)OC (stereo not given),> 100,> 100,> 100 µM,> 100,> 100 µM,> 100,,,,,,,,,,,,,,
CCOC(=N)CC(=O)Nc1cccc(C)c1C,> 100,> 100,> 100 µM,> 100,> 100 µM,> 100,,,,,,,,,,,,,,
CC1(C)O/C(=C\c2ccccc2)C(=O)/C(=C/c2ccccc2)O1,44.4,> 100,> 100 µM,> 100,> 100 µM,> 100,,,,,,,,,,,,,,
COC(=O)CCC(=O)CC1CC(=O)C2CCCN12 (stereo not given),> 100,> 100,> 100 µM,> 100,> 100 µM,> 100,,,,,,,,,,,,,,
Nc1nc(CCl)nc(Nc2ccccc2)n1,4.58,43.4,> 100 µM,38.8,28.9 µM,> 100,,,,,,,,,,,,,,
COc1ccc(C2c3cc(OC)c(OC)cc3C(Cc3ccc([N+](=O)[O-])cc3)C2c2ccc([N+](=O)[O-])cc2)cc1OC (stereo not given),> 100,> 100,> 100 µM,> 100,> 100 µM,> 100,,,,,,,,,,,,,,
COc1cc(C2=C(c3cn(C)c4ccccc34)COC2=O)cc(OC)c1OC,> 100,1.28,,> 34.8,,> 100,0.0592,0.0648,,0.123,,0.16,0.0615,4.18,0.211,> 100,0.0244,0.0875,0.0604,8.65
Cn1cc(C2=C(c3cn(CCCCCN)c4ccccc34)C(=O)NC2=O)c2ccccc21,> 20.6,> 21,,> 25,,> 25,5.58,6.06,,15.2,,> 25,8.62,24.3,13.8,> 25,2.4,> 25,6.23,21.6
O=S1OC2(c3ccccc3-c3ccccc32)c2ccccc21 (stereo not given),> 100,> 100,> 100 µM,> 100,> 100 µM,> 100,,,,,,,,,,,,,,
